Tests used:
[1] = test system: antibodies in sera from SARS patients (sera 1a, 1b, 2, 6, 37, 62, London, SARS-yellow, SARS-green); format: binding, human; parameters: Binding of serum 6 to linear peptides of protein X1 of SARS-CoV Urbani / Binding of serum 37 to linear peptides of protein X1 of SARS-CoV Urbani / Binding of serum 6 to looped/cyclic peptide (PEPSCAN-ELISA) / Binding of serum 37 to looped/cyclic peptide (PEPSCAN-ELISA) / Binding of serum 37 to looped/cyclic peptides of protein X1 of SARS-CoV Urbani / Binding of serum 6 to linear peptides of protein X2 / Binding of serum 37 to linear peptides of protein X2 / Binding of serum 37 to looped/cyclic peptides of protein X2 of SARS-CoV Urbani / Binding of serum 6 to linear peptides of protein M of SARS-CoV Urbani / Binding of serum 37 to linear peptides of protein M of SARS-CoV Urbani / Binding of serum 6 to looped/cyclic peptides of protein M of SARS-CoV Urbani / Binding of serum 37 to looped/cyclic peptides of protein M of SARS-CoV Urbani / Binding of serum 6 to linear peptides of protein X3 of SARS-CoV Urbani / Binding of serum 37 to linear peptides of protein X3 of SARS-CoV Urbani / Binding of serum 37 to looped/cyclic peptides of protein X3 of SARS-CoV Urbani / Binding of serum 6 to linear peptides of protein X4 of SARS-CoV Urbani / Binding of serum 37 to linear peptides of protein X4 of SARS-CoV Urbani / Binding of serum 37 to looped/cyclic peptides of protein X4 of SARS-CoV Urbani / Binding of serum 6 to linear peptides of protein X5 of SARS-CoV Urbani / Binding of serum 37 to linear peptides of protein X5 of SARS-CoV Urbani / Binding of serum 37 to looped/cyclic peptides of protein X5 of SARS-CoV Urbani / Binding of serum 6 to linear peptides of protein N of SARS-CoV Urbani / Binding of serum 37 to linear peptides of protein N of SARS-CoV Urbani / Binding of serum 6 to linear peptide (PEPSCAN-ELISA) / Binding of serum 1a to looped/cyclic peptides of protein N of SARS-CoV Urbani / Binding of serum 1b to looped/cyclic peptides of protein N of SARS-CoV Urbani / Binding of serum 2 to looped/cyclic peptides of protein N of SARS-CoV Urbani / Binding of serum 6 to looped/cyclic peptides of protein N of SARS-CoV Urbani / Binding of serum 37 to looped/cyclic peptides of protein N of SARS-CoV Urbani / Binding of serum 62 to looped/cyclic peptides of protein N of SARS-CoV Urbani / Binding of serum London to looped/cyclic peptides of protein N of SARS-CoV Urbani / Binding of serum SARS-green to looped/cyclic peptides of protein N of SARS-CoV Urbani: unit not given here
[2] = test system: control sera (pooled serum of ten healthy LUMC hospital workers; commercial negative donor pooled serum from the Dutch bloodbank); format: binding, human; parameters: Binding of Control serum LUMC to linear peptides / Binding of Control serum Blood-bank to linear peptides / Binding of Control serum LUMC to looped peptides / Binding of Control Serum Blood-Bank to Looped peptides / Binding of Control serum LUMC to linear peptides of the protein M of SARS-CoV Urbani / Binding of Control serum Blood-bank to linear peptides of the protein M of SARS-CoV Urbani / Binding of Control serum LUMC to looped peptides of the protein M of SARS-CoV Urbani / Binding of Control Serum Blood-Bank to Looped peptides of the protein M of SARS-CoV Urbani: unit not given here
[3] = test system: rabbit serum obtained by immunizing a rabbit with the SARS-CoV strain Frankfurt 1; format: binding; parameters: Binding of a rabbit serum to linear peptides / Binding of a rabbit serum to looped peptides / Rabbit serum linear peptides / Rabbit serum looped peptides / Binding of a rabbit serum to linear peptides of protein N of SARS-CoV Urbani (Rabbit serum linear peptides) / Binding of a rabbit serum to looped/cyclic peptides of protein N of SARS-CoV Urbani (Rabbit serum looped peptides): unit not given here

Sequence | Binding of serum 1a to looped/cyclic peptides of protein X2 of SARS-CoV Urbani [1] | Binding of serum 1b to looped/cyclic peptides of protein X2 of SARS-CoV Urbani [1] | Binding of serum 2 to looped/cyclic peptides of protein X2 of SARS-CoV Urbani [1] | Binding of serum 6 to looped/cyclic peptides of protein X2 of SARS-CoV Urbani [1] | Binding of serum 37 to looped/cyclic peptides of protein X2 of SARS-CoV Urbani [1] | Binding of serum 62 to looped/cyclic peptides of protein X2 of SARS-CoV Urbani [1] | Binding of serum London to looped/cyclic peptides of protein X2 of SARS-CoV Urbani [1] | Binding of serum SARS-green to looped/cyclic peptides of protein X2 of SARS-CoV Urbani [1] | Binding of serum SARS-yellow to looped/cyclic peptides of protein X2 of SARS-CoV Urbani [1] | Binding of Control Serum Blood-Bank to Looped peptides [2] | Binding of Control serum Blood-bank to linear peptides [2] | Binding of Control serum LUMC to linear peptides [2] | Binding of Control serum LUMC to looped peptides [2] | Binding of a rabbit serum to linear peptides [3] | Binding of a rabbit serum to looped peptides [3] | other results
VYHITVSQIQLSLLK | 0.5 | 0.2 | 0.2 | 0.6 | 0.4 | 0.6 | 1.3 | 0.3 | 0.3 | 0.6 | 0.5 | 0.7 | 0.4 | 0.9 | 0.4 | Binding of serum 1a to linear peptides of protein X2 [1]: 0.6; Binding of serum 1b to linear peptides of protein X2 [1]: 0.5; Binding of serum 2 to linear peptides of protein X2 [1]: 0.5; Binding of serum 6 to linear peptides of protein X2 [1]: 0.5; Binding of serum 37 to linear peptides of protein X2 [1]: 0.7; Binding of serum 62 to linear peptides of protein X2 [1]: 0.4; Binding of serum London to linear peptides of protein X2 [1]: 0.4; Binding of serum SARS-green to linear peptides of protein X2 [1]: 0.2; Binding of serum SARS-yellow to linear peptides of protein X2 [1]: 0.7
ALGKVLPFHRWHTMV |  |  |  |  |  |  |  |  |  | 0.1 | 0.8 | 0.5 | 0.5 |  |  | Binding of serum 1a to linear peptides of protein X5 of SARS-CoV Urbani [1]: 0.9; Binding of serum 1a to looped/cyclic peptides of protein X5 of SARS-CoV Urbani [1]: 0.4; Binding of serum 1b to linear peptides of protein X5 of SARS-CoV Urbani [1]: 0.5; Binding of serum 1b to looped/cyclic peptides of protein X5 of SARS-CoV Urbani [1]: 0.0; Binding of serum 2 to linear peptides of protein X5 of SARS-CoV Urbani [1]: 0.7; Binding of serum 2 to looped/cyclic peptides of protein X5 of SARS-CoV Urbani [1]: 0.6; Binding of serum 6 to linear peptides of protein X5 of SARS-CoV Urbani [1]: 0.6; Binding of serum 6 to looped/cyclic peptides of protein X5 of SARS-CoV Urbani [1]: 0.3; Binding of serum 37 to linear peptides of protein X5 of SARS-CoV Urbani [1]: 0.6; Binding of serum 37 to looped/cyclic peptides of protein X5 of SARS-CoV Urbani [1]: 0.5; Binding of serum 62 to linear peptides of protein X5 of SARS-CoV Urbani [1]: 0.7; Binding of serum 62 to looped/cyclic peptides of protein X5 of SARS-CoV Urbani [1]: 0.5; Binding of serum London to linear peptides of protein X5 of SARS-CoV Urbani [1]: 0.7; Binding of serum London to looped/cyclic peptides of protein X5 of SARS-CoV Urbani [1]: 0.2; Binding of serum SARS-green to linear peptides of protein X5 of SARS-CoV Urbani [1]: 0.5; Binding of serum SARS-green to looped/cyclic peptides of protein X5 of SARS-CoV Urbani [1]: 0.6; Binding of serum SARS-yellow to linear peptides of protein X5 of SARS-CoV Urbani [1]: 0.2; Binding of serum SARS-yellow to looped/cyclic peptides of protein X5 of SARS-CoV Urbani [1]: 0.1; Rabbit serum linear peptides [3]: 0.6; Rabbit serum looped peptides [3]: 0.1
KHKKVSTNLCTHSFR | 0.5 | 0.0 | 0.7 | 0.4 | 0.2 | 0.4 | 0.1 | 0.3 | 0.1 | 0.5 | 0.9 | 0.6 | 0.7 | 0.4 | 0.0 | Recognition of the peptide by sera of SARS-CoV infected individuals, and form (linear, looped/cyclic) in which it is recognized [1]: recognized in linear form
